Some results are limits rather than exact numbers.

We go through 1 molecule from patent US12043670B2, “Anti-BCMA antibody-drug conjugates and methods of use” (Eisai R&D Management Co., Ltd., priority 2020, dated 2024).

For data set [1], the system named is splicing of Ad2.1 pre-mRNA in HeLa nuclear extract. Kind of data set: In vitro splicing (IVS), qPCR readout, Ad2.1 substrate. The class given is biochemical. How it is done:
(§1) To evaluate payload activity in a cell-free system, an in vitro splicing assay was performed. The payloads were incubated with nuclear extracts and pre-mRNA substrate minigenes.
(§2) HeLa nuclear extract preparation: HeLa S3 cell pellets were resuspended in hypotonic buffer (10 mM HEPES pH 7.9, 1.5 mM MgCl2, 10 mM KCl, 0.2 mM PMSF, 0.5 mM DTT) and the suspension was brought up to a total of 5 packed cell volume (PCV). After centrifugation, the supernatant was discarded, and the cells were brought up to 3 PCV with hypotonic buffer and incubated on ice for 10 min. Cells were lysed using a dounce homogenizer and then centrifuged. The supernatant was discarded, and the pellet was resuspended with ½ packed nuclear volume (PNV) of low salt buffer (20 mM HEPES pH 7.9, 1.5 mM MgCl2, 20 mM KCl, 0.2 mM EDTA, 25% glycerol, 0.2 mM PMSF, 0.5 mM DTT), followed by ½ PNV of high salt buffer (same as low salt buffer except 1.4 M KCl). The nuclei were gently mixed for 30 min before centrifuging. The supernatant (nuclear extract) was then dialyzed into storage buffer (20 mM HEPES pH 7.9, 100 mM KCl, 0.2 mM EDTA, 20% glycerol, 0.2 mM PMSF, 0.5 mM DTT). Protein concentration was determined using NanoDrop 8000 UV-Vis spectrophotometer (ThermoFisher Scientific). […]

Another data set can be described thus: Caco-2 permeability. Format: in vitro ADME. The settings on record: human. How it is done:
Caco-2 cells were cultured for 21 days in transwell 24-well plates at 37° C., 95% humidity, 5% CO2. Integrity of cell monolayer was confirmed by TEER (transepithelial electrical resistance) and Lucifer yellow. Payloads were spiked in duplicate at 10 μM, separately, on both sides of the cell monolayer. Permeability rates from the apical to basolateral (A-B) direction and the basolateral to apical (B-A) direction were determined by sampling aliquots from both chambers immediately after treatment (t=0) and following incubation for 2 hours. Samples were protein precipitated with organic solvent containing internal standard and analyzed by LC-MS/MS (SCIEX; API 5500). The area ratio responses of payload/internal standard over time in both directions were used to generate permeability (cm/sec) values. Efflux ratio was calculated by dividing B-A/A-B. Control compounds for low and high permeability and efflux behaved as expected.
On the technique in general: Caco-2 cells form a polarised layer with tight junctions and transporters.

The subject of another data set is MM1.S cells. Put plainly: CellTiter-Glo cell viability, MM1.S. The class given is cell-based, human. The conditions noted are these: MM1.S, 96 h.
The subject of another data set is OPM2 cells. Put plainly: CellTiter-Glo cell viability, OPM2 (normal serum). Format: cell-based, human.
Data set [2] concerns splicing of Ad2.2 pre-mRNA in HeLa nuclear extract. Put plainly: In vitro splicing (IVS), qPCR readout, Ad2.2 substrate. Format: biochemical. Here is the method: as §1, §2
In general terms: In qPCR the cycle at which signal appears reflects the starting amount.

The target of another data set is T1, SF3b complex (Homo sapiens, UniProt O75533+Q7RTV0).
T1 construct: endogenous in cells; host or cells: nuclear extracts
Kind of data set: SF3B1 binding / scintillation proximity assay (SPA). The conditions noted are these: competition with 2.5 nM [3H]-pladienolide B probe. Here is the method:
A scintillation proximity assay was performed to measure the binding affinity of compounds (“payloads”) to the SF3b complex. Batch immobilization of anti-SF3B1 antibody (MBL) to anti-mouse PVT SPA scintillation beads (PerkinElmer) was prepared. For every 2.5 mg of nuclear extracts, 5 μg of anti-SF3B1 antibody and 1.5 mg of beads were mixed in 150 μL PBS. The antibody-bead mixture was incubated for 30 min at room temperature (RT) and centrifuged at 18,000 g for 5 min. 150 μL PBS was used to resuspend every 1.5 mg antibody-bead mixture. The beads were suspended and added to the prepared nuclear extracts. The slurry was incubated for 2 hours at 4° C. with gentle mixing. The beads were then collected by centrifuging at 18,000 g for 5 min, and washed twice with PBS+0.1% Triton X-100. After a final centrifugation step, every 1.5 mg of beads was suspended with 150 μL of PBS. SF3b complexes were tested for [^3H]-labeled pladienolide B probe binding ([^3H]-PB), synthesized as previously described (Kotake et al. (2007) Nat Chem Biol. 3(9):570-5). 100 μL binding reactions were prepared with 50 μL bead slurry and by adding varying concentrations of PB or PB-OH, and after 30 min pre-incubation, 2.5 nM of [^3H]-PB was added. The mixture was incubated for 30 min, and luminescence signals were read using a MicroBeta2 Plate Counter (PerkinElmer). […]
On the technique in general: Scintillation proximity formats need no separation of bound from free tracer.

The subject of a further data set is MOLP8 cells. Kind of data set: CellTiter-Glo cell viability, MOLP8. The class given is cell-based, human.
Another data set deals with MM1.R cells. Kind of data set: CellTiter-Glo cell viability, MM1.R. The settings on record: 96 h. Format: cell-based, human.
A short description of another data set: PAMPA permeability. The class given is in vitro ADME. The settings on record: read-out: Stability, Mean, Perm PAMPA.

Usually IC50 stands for the concentration that inhibits the measured activity by half. As usually defined, the efflux ratio is the permeability from basolateral to apical divided by that in the opposite direction, in the common usage. As usually defined, the GI50 is the concentration giving 50% growth inhibition. With `CC[C@H](O)[C@@H](C)[C@H]1O[C@@H]1C[C@@](C)(O)/C=C/C=C(\C)[C@H]1OC(=O)C[C@H](O)CC[C@@](C)(OC(C)=O)[C@@H](OC(=O)N2CCNCC2)/C=C/[C@@H]1C` [D2, (2S,3S,6S,7R,10R,E)-7-acetoxy-10-hydroxy-2-((R,2E,4E)-6-hydroxy-7-((2R,3R)-3-((2R,3S)-3-hydroxypentan-2-yl)oxiran-2-yl)-6-methylhepta-2,4-dien-2-yl)-3,7-dimethyl-12-oxooxacyclododec-4-en-6-ylpiperazine-1-carboxylate], the half-inhibitory concentration (IC50) is 27.3 nM in data set [1], 119 nM in [2] and 12.6 nM on SF3b complex. Moreover, the efflux ratio at 2 h, 10 μM in “Caco-2 permeability” (B-A/A-B) amounted to 9.4. Besides, the Papp A→B at 2 h, 10 μM in the data set “Caco-2 permeability” (apical to basolateral, 10 μM, 2 hours, read-out: Permeability, Mean, Caco-2 A-B Perm) worked out at 0.94 ×10⁻⁶ cm/s. In addition, the Papp B→A at 2 h, 10 μM in the data set “Caco-2 permeability” (basolateral to apical, 10 μM, 2 hours, read-out: Permeability, Mean, Caco-2 B-A Perm) is 0.1 ×10⁻⁶ cm/s. In addition, the 50% growth inhibitory concentration (GI50) amounted to 1.69 nM in the data set on MM1.S cells (Homo sapiens, read-out: CTGlo Mean GI50 MM1.S 96 h); 1.69 nM with OPM2 cells (Homo sapiens, OPM-2, 96 h, read-out: CTGlo Mean GI50 OPM2 96 h); 1.15 nM in the data set on MOLP8 cells (Homo sapiens, MOLP-8, 96 h, read-out: CTGlo Mean GI50 MOLP8 96 h); 7.59 nM in the data set with MM1.R cells (Homo sapiens, MM.1R, read-out: CTGlo Mean GI50 MM1.R 96 h). In addition, the “CTGlo Mean LD50 MM1.S 96 h” value in the data set on MM1.S cells (payload alone) is recorded as 7.74 nM. Also, the “CTGlo Mean LD50 OPM2 96 h” value in the data set with OPM2 cells (payload alone, OPM2, 96 h) came to 7.74 nM. Moreover, the “CTGlo Mean LD50 MOLP8 96 h” value in the data set with MOLP8 cells (payload alone, MOLP8, 96 h) was determined as 12.99 nM. In the data set on MM1.R cells (payload alone, MM1.R), the “CTGlo Mean LD50 MM1.R 96 h” value is 21.4 nM. In the data set “PAMPA permeability”, the Papp was < 0.1 ×10⁻⁶ cm/s.
